Laboratory results reported in patent US8242151B2, “Tricyclic compounds” (Kyowa Hakko Kirin Co., Ltd., priority 2007, dated 2012).

What was measured:
[1] = target: T1, GAL4-PPARγ chimeric nuclear receptor (human PPARγ ligand binding region) (Homo sapiens, UniProt P37231); test: Transactivation assay of PPARγ by transient gene transfer (GAL4-PPARγ luciferase reporter); format: cell-based; details: HEK293EBNA cells, 24 hr; concentration showing 50% of efficacy; activity relative to pioglitazone 10 μmol/L = 100%
T1 construct: expressed in transfected cells; host or cells: HEK293EBNA cells
T1 sequence (P37231 174-475 isoform P37231-2): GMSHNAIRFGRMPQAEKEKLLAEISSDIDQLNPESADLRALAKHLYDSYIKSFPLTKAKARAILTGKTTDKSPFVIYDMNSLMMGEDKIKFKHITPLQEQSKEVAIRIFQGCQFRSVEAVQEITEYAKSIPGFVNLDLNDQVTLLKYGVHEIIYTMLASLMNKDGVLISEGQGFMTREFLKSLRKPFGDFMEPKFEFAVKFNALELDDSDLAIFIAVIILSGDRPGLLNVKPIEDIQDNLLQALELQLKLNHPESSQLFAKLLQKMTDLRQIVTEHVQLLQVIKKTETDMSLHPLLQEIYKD
Protocol: The agonist activity of compound (I) to PPARγ was determined by a transactivation assay method using a chimeric nuclear receptor of a DNA binding region of a yeast transcription factor GAL4 and a PPARγ ligand binding region. Specifically, the PPARγ agonist activity of compound (I) was evaluated by the following method based on the method of Lehmann et al. (J Biol. Chem., 1995, vol. 270, page 12953).
HEK293EBNA cells cultured in Dulbecco's Modified Eagle medium (Invitrogen) containing 10 v/v % fetal calf serum (Invitrogen) were used. 30 mL of the above-mentioned cells (density: 1×10^5 cells/mL) were inoculated in a […] culture dish (Iwaki Glass), and cultured overnight. Using SuperFect Transfection Reagent (QIAGEN), a plasmid expressing a GAL4-PPARγ chimeric nuclear receptor fusing 174-475 amino acids, which are human PPARγ ligand binding region, and 1-147 amino acids, which are GAL4 DNA binding region, and a reporter plasmid expressing a GAL4 responsive luciferase were transiently introduced into the cells at a proportion of 4:1. After 5 hr from gene introduction, the cells were detached from the culture dish, and the detached cells (density: 2×10^4 cells/mL) were inoculated by 100 μL in each well of a 96 well white plate (SUMITOMO BAKELITE), and cultured overnight. The medium was removed, compound (I) diluted in various concentrations with serum-free Dulbecco's Modified Eagle medium was added by 100 μL, and the mixture was reacted under a 5% carbon dioxide gas stream (5% CO2) at 37° C. for 24 hr. On the other hand, as a positive control, 10 μmol/L of pioglitazone (100 μL) was added, and the mixture was reacted under a 5% carbon dioxide gas stream (5% CO2) at 37° C. for 24 hr. As a substrate of luciferase, 100 μL of Steady-Glo (Promega) was added to each well and the mixture was thoroughly stirred. Immediately thereafter, the chemical luminescence due to luciferase was measured using TopCount NTX (Packard).
The agonist activity (activity rate (%)) of compound (I) to PPARγ was calculated according to the following formula, as a relative activity when the agonist activity on addition of pioglitazone (10 μmol/L) was 100%.

[2] = tested on: spontaneously hypertensive rats (SHR); test: Antihypertensive action by telemetry method; format: in vivo, rat; details: oral once a day for 4 days, 24 hr averages
Source text: A telemetry transmitter was indwelled in the abdominal artery of spontaneously hypertensive rats (SHR), and the blood pressure and heart rate were monitored. The rats were acclimated and reared for 4 weeks or more, and only the rats with hypertension were used for the test. Before drug administration, the rats were grouped such that the blood pressure and heart rate of each rat would be of the same levels between the groups. A solvent (0.5% methylcellulose solution) and a test compound were repeatedly administered orally once a day for 4 days. The average systolic blood pressure for 24 hr, average diastolic blood pressure for 24 hr and average heart rate for 24 hr were calculated on each administration day.

CCc1nc2c(C)cc(C)nc2n1Cc1ccc2c(c1)CCc1ccccc1C2=CC#N [Compound S15, [2-(2-ethyl-5,7-dimethyl-3H-imidazo[4,5-b]pyridin-3-yl)methyl-10,11-dihydro-5H-dibenzo[a,d]cyclohepten-5-ylidene]acetonitrile]
EC50 [1]: 1250 nM
antihypertensive action (blood pressure, telemetry) [2]: antihypertensive action

CCc1nc2c(Cl)cc(C)nc2n1Cc1ccc2c(c1)CCc1ccccc1N2C(C)c1nnn[nH]1 (stereo not drawn) [Compound 25, 2-(7-chloro-2-ethyl-5-methyl-3H-imidazo[4,5-b]pyridin-3-yl)methyl-5-[1-(1H-tetrazol-5-yl)ethyl]-10,11-dihydro-5H-dibenzo[b,f]azepine]
EC50 [1]: 233 nM
antihypertensive action (blood pressure, telemetry) [2]: antihypertensive action

CCOc1nc2c(C)cc(C)nc2n1Cc1ccc2c(c1)CCc1ccccc1/C2=C(/C)c1noc(=O)[nH]1 [Compound 86, (E)-2-(2-ethoxy-5,7-dimethyl-3H-imidazo[4,5-b]pyridin-3-yl)methyl-5-[1-(5-oxo-4,5-dihydro-1,2,4-oxadiazol-3-yl)ethylidene]-10,11-dihydro-5H-dibenzo[a,d]cycloheptene]
EC50 [1]: 323 nM
antihypertensive action (blood pressure, telemetry) [2]: antihypertensive action

CCOc1nc2c(Cl)ccnc2n1Cc1ccc2c(c1)COc1ccccc1/C2=C(/C)c1noc(=O)[nH]1 [Compound 138, (Z)-8-(7-chloro-2-ethoxy-3H-imidazo[4,5-b]pyridin-3-yl)methyl-11-[1-(5-oxo-4,5-dihydro-1,2,4-oxadiazol-3-yl)ethylidene]-6,11-dihydrodibenzo[b,e]oxepine]
EC50 [1]: 550 nM
antihypertensive action (blood pressure, telemetry) [2]: antihypertensive action

CCc1nc2c(C)cc(C)nc2n1Cc1ccc2c(c1)CCc1ccccc1/C2=C(/C)c1nnn[nH]1 [Compound 45, (E)-2-(2-ethyl-5,7-dimethyl-3H-imidazo[4,5-b]pyridin-3-yl)methyl-5-[1-(1H-tetrazol-5-yl)ethylidene]-10,11-dihydro-5H-dibenzo[a,d]cycloheptene]
EC50 [1]: 1090 nM
antihypertensive action (blood pressure, telemetry) [2]: antihypertensive action

Cc1cc(C)c2nc(C3CC3)n(Cc3ccc4c(c3)CCc3ccccc3N4C(C)c3nnn[nH]3)c2n1 (stereo not drawn) [Compound 71, 2-(2-cyclopropyl-5,7-dimethyl-3H-imidazo[4,5-b]pyridin-3-yl)methyl-5-[1-(1H-tetrazol-5-yl)ethyl]-10,11-dihydro-5H-dibenzo[b,f]azepine]
EC50 [1]: 235 nM
antihypertensive action (blood pressure, telemetry) [2]: antihypertensive action

CCc1nc2c(C)cc(C)nc2n1Cc1ccc2c(c1)CCc1ccccc1N2C(C)c1nnn[nH]1 (stereo not drawn) [Compound 22, 2-(2-ethyl-5,7-dimethyl-3H-imidazo[4,5-b]pyridin-3-yl)methyl-5-[1-(1H-tetrazol-5-yl)ethyl]-10,11-dihydro-5H-dibenzo[b,f]azepine]
EC50 [1]: 1000 nM
antihypertensive action (blood pressure, telemetry) [2]: antihypertensive action

CCOc1nc2c(Cl)cccc2n1Cc1ccc2c(c1)COc1ccccc1/C2=C(/C)c1noc(=O)[nH]1 [Compound 146, (Z)-8-(4-chloro-2-ethoxybenzimidazol-1-yl)methyl-11-[1-(5-oxo-4,5-dihydro-1,2,4-oxadiazol-3-yl)ethylidene]-6,11-dihydrodibenzo[b,e]oxepine]
EC50 [1]: 336 nM
antihypertensive action (blood pressure, telemetry) [2]: antihypertensive action

CCc1nc2c(C)cc(C)nc2n1Cc1ccc2c(c1)COc1ccccc1/C2=C\c1noc(=O)[nH]1 [Compound 118, (Z)-8-(2-ethyl-5,7-dimethyl-3H-imidazo[4,5-b]pyridin-3-yl)methyl-11-(5-oxo-4,5-dihydro-1,2,4-oxadiazol-3-yl)methylene-6,11-dihydrodibenzo[b,e]oxepine]
EC50 [1]: 348 nM
antihypertensive action (blood pressure, telemetry) [2]: antihypertensive action

Cc1cc(C)c2nc(C3CC3)n(Cc3ccc4c(c3)CCc3ccccc3N4C(C)c3noc(=O)[nH]3)c2n1 (stereo not drawn) [Compound 70, 2-(2-cyclopropyl-5,7-dimethyl-3H-imidazo[4,5-b]pyridin-3-yl)methyl-5-[1-(5-oxo-4,5-dihydro-1,2,4-oxadiazol-3-yl)ethyl]-10,11-dihydro-5H-dibenzo[b,f]azepine]
EC50 [1]: 53 nM

C/C(=C1/c2ccccc2CCc2cc(Cn3c(C4CC4)nc4c(C)ccnc43)ccc21)c1nnn[nH]1 [Compound 100, (E)-2-(2-cyclopropyl-7-methyl-3H-imidazo[4,5-b]pyridin-3-yl)methyl-5-[1-(1H-tetrazol-5-yl)ethylidene]-10,11-dihydro-5H-dibenzo[a,d]cycloheptene]
EC50 [1]: 1020 nM
antihypertensive action (blood pressure, telemetry) [2]: antihypertensive action

CCOc1nc2cccnc2n1Cc1ccc2c(c1)CCc1ccccc1/C2=C(/C)c1noc(=O)[nH]1 [Compound 91, (E)-2-(2-ethoxy-3H-imidazo[4,5-b]pyridin-3-yl)methyl-5-[1-(5-oxo-4,5-dihydro-1,2,4-oxadiazol-3-yl)ethylidene]-10,11-dihydro-5H-dibenzo[a,d]cycloheptene]
EC50 [1]: 1520 nM

CCc1nc2c(Cl)cc(C)nc2n1Cc1ccc2c(c1)OCc1ccccc1/C2=C\c1noc(=O)[nH]1 [Compound 106, (E)-3-(7-chloro-2-ethyl-5-methyl-3H-imidazo[4,5-b]pyridin-3-yl)methyl-11-(5-oxo-4,5-dihydro-1,2,4-oxadiazol-3-yl)methylene-6,11-dihydrodibenzo[b,e]oxepine]
EC50 [1]: 310 nM

CCc1nc2c(C)cc(C)nc2n1Cc1ccc2c(c1)CCc1ccccc1/C2=C\c1nnn[nH]1 [Compound S16, (E)-2-(2-ethyl-5,7-dimethyl-3H-imidazo[4,5-b]pyridin-3-yl)methyl-5-(1H-tetrazol-5-yl)methylene-10,11-dihydro-5H-dibenzo[a,d]cycloheptene]
EC50 [1]: 305 nM
antihypertensive action (blood pressure, telemetry) [2]: antihypertensive action

CCc1nc2c(Cl)cc(C)nc2n1Cc1ccc2c(c1)COc1ccccc1/C2=C(/C)c1noc(=O)[nH]1 [Compound 129, (Z)-8-(7-chloro-2-ethyl-5-methyl-3H-imidazo[4,5-b]pyridin-3-yl)methyl-11-[1-(5-oxo-4,5-dihydro-1,2,4-oxadiazol-3-yl)ethylidene]-6,11-dihydrodibenzo[b,e]oxepine]
EC50 [1]: 611 nM
antihypertensive action (blood pressure, telemetry) [2]: antihypertensive action

CCCc1nc2c(C)cccc2n1Cc1ccc2c(c1)CCc1ccccc1N2Cc1noc(=O)[nH]1 [Compound 6, 2-(4-methyl-2-propylbenzimidazol-1-yl)methyl-5-(5-oxo-4,5-dihydro-1,2,4-oxadiazol-3-yl)methyl-10,11-dihydro-5H-dibenzo[b,f]azepine]
EC50 [1]: 97 nM

CCOc1nc2c(C)cc(C)nc2n1Cc1ccc2c(c1)COc1ccccc1/C2=C\c1noc(=O)[nH]1 [Compound 124, (Z)-8-(2-ethoxy-5,7-dimethyl-3H-imidazo[4,5-b]pyridin-3-yl)methyl-11-(5-oxo-4,5-dihydro-1,2,4-oxadiazol-3-yl)methylene-6,11-dihydrodibenzo[b,e]oxepine]
EC50 [1]: 320 nM
antihypertensive action (blood pressure, telemetry) [2]: antihypertensive action

CCCc1nc2c(C)cccc2n1Cc1ccc2c(c1)CCc1ccccc1/C2=C\c1noc(=O)[nH]1 [Compound 33, (E)-2-(4-methyl-2-propylbenzimidazol-1-yl)methyl-5-(5-oxo-4,5-dihydro-1,2,4-oxadiazol-3-yl)methylene-10,11-dihydro-5H-dibenzo[a,d]cycloheptene]
EC50 [1]: 103 nM

C/C(=C1\c2ccc(Cn3c(C4CC4)nc4c(Cl)cccc43)cc2COc2ccccc21)c1noc(=O)[nH]1 [Compound 147, (Z)-8-(4-chloro-2-cyclopropylbenzimidazol-1-yl)methyl-11-[1-(5-oxo-4,5-dihydro-1,2,4-oxadiazol-3-yl)ethylidene]-6,11-dihydrodibenzo[b,e]oxepine]
EC50 [1]: 226 nM
antihypertensive action (blood pressure, telemetry) [2]: antihypertensive action
